Assay results as given in patent US8133694B2, “Functional vitamin D derivatives and method of determining 25-hydroxy- and 1α, 25-dihydroxy vitamin D” (Immundiagnostik AG, priority 1998, dated 2012).

Experiments:
[1] = test system: vitamin D-binding protein; assay: Competitive protein binding analysis (CBPA) with 3H-25-OH-vitamin D as tracer, cross reactions; parameters: species or system goat
Procedure: In each case 100 μl vitamin D binding protein, isolated from goat serum (1:15000 in assay buffer with 3% (w/v) PEG 6000) together with 10 μl standard, control or sample (10 μl result from the sample preparation) was placed in the wells. The microtitration plate was incubated for 24 hours at 4EC in the dark and subject to shaking. Then, the solution was removed from the wells and the wells washed five times in each case with 200 μl washing buffer.
Insofar as no other indication is given, all reagents, buffers and materials were the same as in above-mentioned Example 3. There served as competitive binding partner (tracer) tritium-labelled 25-OH-vitamin D3. Differing from Example 3, the measurement samples were purified by means of extraction (into individual values). For this purpose, in each case 50 μl sample [non-specific assay buffer NSB, standard, control, patients sample (plasma, serum or urine)] was introduced into a 1.5 ml disposable reaction container, 200 μl acetonitrile added, mixed, the container walls centrifuged free, and the mixture incubated for 20 to 30 minutes at 4EC. The mixture was centrifuged at 1700×g for 10 minutes. The determinations were effected with the results using duplicate values.
For this purpose 25 μl clear result was transferred to a glass test tube (or into a special-RIA-container from Sarstedt, Darmstadt) and 10 μl tracer (3H-25-OH-D), 300 μl assay buffer and 100 μl vitamin D-binding protein (not in NSB) added. The test tube contents were mixed, incubated for one hour at 4EC and, to remove non-bound radioactive tracer, 100 μl activated charcoal suspension (activated charcoal containing phosphate buffer with 0.1% NaN3) was added. The test tube content was mixed, incubated for 3 to 5 minutes at 4EC, and the active charcoal pelletized by means of centrifuging for 10 minutes at 1700×g. Then, in each case 400 μl of the result was transferred to a counter container (7 ml) and, after the addition of 2 ml scintillator liquid such as Aquasafe™ 300 or HiSafe™ III, the radioactivity present in the result was counted (2 minutes in a beta-counter). […]

[2] = test system: vitamin D binding protein from goat serum; assay: RIA for determining competition with 3H-25-OH-vitamin D3 and displacement efficiency; parameters: unit not given here; settings: tracer 3H-25-OH-vitamin D3
Procedure: Displacement efficiencies on vitamin D binding protein from goat serum and competition with ^3H-250H-vitamin D3 were measured for three vitamin D derivates using a RIA. The tested derivatives were 25-OH-vitamin D, biotinylated 25-OH-vitamin D3 of example 1 and 25-OH-D3 dimer of example 10.
The dimer having a short spacer has a lower displacement efficiecy than the corresponding biotinylated compound with the longer spacer group. […] For comparision, compound C in WO 97/24127 (Holick et al.) could only displace the tritiated compound from human vitamin D binding protein when it was present in eleven-fold excess. […] A longer spacer group in the vitamin D dimer leads to a higher affinity to DBP. An eleven fold lower affinity on the other hand is typical for vitamin D derivatives lacking the 25 hydroxy group which is essential for high affinity to vitamin D binding protein DBP.

[3] = Stability of the 25-OH-D3-biotin compound in protonic solvent (NMR, HPLC); assay type: physicochemical; settings: protonic solvent pH 4-5; for HPLC analysis, compound intact: 200 days
Procedure: In each case 20 mg purified 25-OH-D3-biotin compound (25-OH-vitamin D3-3β-3′[6-N-(biotinyl)-hexamido]amidopropylether) from Example 1 was placed in an NMR test tube to which 1 ml solvent was added. The solvent was a mixture of deuterium chloroform:deuterium acetonitrile: D2O in the ratio 3:2:1 with a pH-value between 4 and 5. The samples were stored for 200 days under the conditions set out below and the NMR spectra were investigated at regular intervals. • Sample 1: light excluded at −20EC; • Sample 2 light excluded at +4−6EC; • Sample 3: light excluded at room temperature; • Sample 4: subject to strong light (on a window ledge) at room temperature.
An HPLC analysis confirmed that samples 1 and 2 were intact even after 200 days in protonic solvent.

[4] = 250 nmol/l added to serum treated with activated charcoal

Row | SMILES | cross-reaction [1, 4] | B/Bo ([2]; Conc. 0.1 ng/ml) | B/Bo ([2]; Conc. 1 ng/ml) | B/Bo ([2]; Conc. 10 ng/ml) | B/Bo ([2]; Conc. 100 ng/ml) | B/Bo ([2]; Conc. 1000 ng/ml) | further results
1 | C=C1/C(=C\C=C2/CCC[C@]3(C)[C@@H]([C@H](C)CCCC(C)(C)O)CC[C@@H]23)C[C@@H](O)C[C@@H]1O [1,25-(OH)2-vitamin D3] | no cross-reactivity | – | – | – | – | – | –
2 | C=C1CCC(O)C/C1=C\C=C1\CCCC2(C)C1CCC2C(C)CCC(O)C(C)(C)O (centres unmarked) [24,25-(OH)2-vitamin D3] | 100% | – | – | – | – | – | –
3 | C=C1CC[C@H](O)C/C1=C/C=C1\CCC[C@]2(C)[C@@H]([C@H](C)CCCC(C)(C)O)CC[C@@H]12 [25-OH-D3, 25-OH-vitamin D3, reference compound] | – | 100 | 92 | 33 | 10 | 7 | –
4 | C=C1CC[C@H](O)C/C1=C/C=C1\CCC[C@]2(C)[C@@H]([C@H](C)/C=C/[C@H](C)C(C)(C)O)CC[C@@H]12 [25-OH-vitamin D2] | – | – | – | – | – | – | cross-reaction ([1]; 125 nmol/l added to serum treated with activated charcoal): 60%
5 | C=C1CC[C@H](OCCCNC(=O)CCCCCNC(=O)CCCCC2SCC3NC(=O)NC32)C/C1=C/C=C1\CCC[C@@]2(C)C1CC[C@@H]2C(C)CCCC(C)(C)O (stereo partly drawn) [Biotin-25OH-D3, 25-Hydroxy vitamin D3-3β-3′[6-N-(biotinyl)hexamido]-amidopropylether] | – | 100 | 99 | 63 | 15 | 8 | HPLC analysis, compound intact ([3]; Sample 1: light excluded at -20EC): intact; HPLC analysis, compound intact ([3]; Sample 2: light excluded at +4-6EC): intact; HPLC analysis, compound still intact ([3]; Sample 3: light excluded at room temperature, after 100 days): more than 78%; degradation ([3]; Sample 4: strong light (window ledge) at room temperature): degraded after two months
